Source: US9523108B2, “Thermostable β-xylosidase” (HONDA MOTOR CO., LTD., priority 2014, dated 2016)

How the values were obtained:
[1] = system: thermostable β-xylosidase OJ1M-273-1 (GH3 family), SEQ ID NO: 2, from hot spring soil metagenome OJ1, expressed in E. coli, purified; assay: Kinetics of PNP substrate hydrolysis by OJ1M-273-1 β-xylosidase; format: biochemical; conditions: 105° C., pH 5 acetate buffer; for Vmax (maximum initial rate of hydrolysis) / Km: 10 min, enzyme diluted to 0.01 mg/mL, Michaelis-Menten fit; for Km: read-out: Km (Michaelis constant); for Kcat/Km (catalytic efficiency): calculated from fitted Vmax and Km
Procedure: The gene recombinant E. coli homogeneous supernatant was loaded onto an ion exchange column HiTrap Q HP (manufactured by GE Healthcare, Inc.) equilibrated with a 50 mM Tris-HCl buffer (pH 8.0), and a medium-high pressure liquid chromatography system AKTA design (manufactured by GE Healthcare, Inc.) was used to fractionate proteins with a concentration gradient of 0 to 50% in a 50 mM Tris-HCl buffer (pH 8.0) containing 1 M of NaCl. […] The fractions with β-xylosidase activity following the buffer exchange were loaded onto a hydrophobic interaction separation column HiTrap Phenyl HP (manufactured by GE Healthcare, Inc.) equilibrated with the same buffer solution, and the proteins were fractionated with a concentration gradient of 0 to 100% in a 50 mM Tris-HCl buffer (pH 8.0). […] The concentrated sample was loaded onto a gel filtration column Hiload 26/60 superdex 200 pg (manufactured by GE Healthcare, Inc.) equilibrated with a 50 mM Tris-HCl buffer (pH 8.0) containing 150 mM of NaCl, and was fractionated by passing a volume of the same buffer equivalent to 1 to 1.5 times the column volume through the column at a flow rate of 2 to 3 mL/min.
PNPX was used as the substrate for measuring the β-xylosidase activity. A solution prepared by dissolving PNPX (manufactured by Sigma-Aldrich Co. LLC.) in water to obtain a prescribed final concentration was used as the substrate solution. The PNPX substrate solutions used in the experiments described below all used aqueous solutions of PNPX prepared by the above method. In the measurements, a solution prepared by diluting the purified enzyme obtained in section <6> above with a 0.05 M Tris-HCl buffer (pH 8.0) to obtain a concentration of 0.1 to 0.01 mg/mL was used.
The reaction solution was composed of 6 μL of the diluted purified enzyme, 294 μL of purified water, 150 μL of a 200 mM acetate buffer (pH 5), and 150 μL of a 20 mM PNPX aqueous solution.
The reaction was performed at 60° C. to 115° C. for 10 minutes using a ReactiTherm (manufactured by Thermo Fisher Scientific Inc.). A glass vial with a volume of 1.5 mL was used as the reaction vessel, and the inside of the vial was pre-coated with a 1.5% by mass aqueous solution of BSA in order to suppress enzyme protein adsorption. In all measurements, a mixed solution prepared by replacing the gene recombinant E. coli homogenous supernatant or the purified enzyme with a 50 mM Tris-HCl buffer (pH 8.0) and then reacting the solution under the same conditions was used as a control. Further, the mixed solution containing the enzyme (the gene recombinant E. coli homogenous supernatant or the purified enzyme), the purified water and the buffer was held at the reaction temperature for five minutes (pre-incubation), the substrate solution was then added, and the reaction was performed. In each case, following completion of the 10-minute reaction, the reaction was halted by adding a 0.2 M Na2CO3 solution to the reaction solution in a volume equal to that of the mixed solution, and the resulting mixture was then centrifuged for 5 minutes to obtain a supernatant. The amount of p-nitrophenol in the supernatant was determined by measuring the absorbance at 420 nm using a spectrophotometer, calculating the amount of p-nitrophenol in the supernatant using a calibration curve prepared with p-nitrophenol, and then determining the amount of p-nitrophenol produced by the enzymatic hydrolysis on the basis of the difference from the control. The enzymatic activity for producing 1 μmol of p-nitrophenol per minute was defined as 1 U, and the value obtained by dividing this activity by the amount of protein was defined as the specific activity (U/mg). Each measurement was performed for three independent experiments, and a mean value and a standard error were determined.
The maximum initial rate (Vmax) of hydrolysis, the Michaelis constant (Km) and the catalytic efficiency (Kcat/Km) were investigated for PNP substrate hydrolysis by OJ1M-273-1. […]

[2] = system: thermostable 1-xylosidase having an optimum temperature of 95° C. (Non-Patent Document 7, Shi et al., 2013); conditions: PNPX as substrate; cited from earlier work

Row | Compound | Vmax (maximum initial rate of hydrolysis) [1] | Km [1] | Kcat/Km (catalytic efficiency) [1] | catalytic efficiency Kcat/Km [2]
1 | O=[N+]([O-])c1ccc(O[C@@H]2O[C@@H](CO)[C@H](O)[C@H]2O)cc1 [PNPAF, p-nitrophenyl-α-L-arabinofuranoside] | 914.5 U/mg | 13.7 mM | 87700 M⁻¹ s⁻¹ | 
2 | O=[N+]([O-])c1ccc(O[C@@H]2OC[C@H](O)[C@H](O)[C@H]2O)cc1 [PNPAP, p-nitrophenyl-α-L-arabinopyranoside] | 838.5 U/mg | 20.6 mM | 53600 M⁻¹ s⁻¹ | 
3 | O=[N+]([O-])c1ccc(O[C@@H]2OC[C@@H](O)[C@H](O)[C@H]2O)cc1 [PNPX, p-nitrophenyl-β-D-xylopyranoside] | 86.0 U/mg | 0.44 mM | 259800 M⁻¹ s⁻¹ | 1.1734e+06 M⁻¹ s⁻¹
